According to PubChem BioAssay (NCI):
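Following 48 hours of exposure in 96-well plates, responses at five concentrations were used to interpolate endpoints linearly. GI50: concentration for 50% inhibition of growth. Definition used: TGI = concentration required for complete inhibition of growth.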

Experiments:
Assay in all cases: NCI tumour cell line growth inhibition, 48 h
SNB-75 CNS = test system: SNB-75 CNS
UO-31 renal = test system: UO-31 renal
OVCAR-3 ovarian = test system: OVCAR-3 ovarian
HCT-116 colon = test system: HCT-116 colon
HOP-62 NSCLC = test system: HOP-62 NSCLC
K-562 leukemia = test system: K-562 leukemia
UACC-257 melanoma = test system: UACC-257 melanoma
NCI-H522 lung = test system: NCI-H522 lung
NCI-H23 lung = test system: NCI-H23 lung
HS 578T breast = test system: HS 578T breast

| SMILES | TGI (SNB-75 CNS) [µM] | TGI (UO-31 renal) [µM] | TGI (OVCAR-3 ovarian) [µM] | TGI (HCT-116 colon) [µM] | TGI (HOP-62 NSCLC) [µM] | TGI (K-562 leukemia) [µM] | TGI (UACC-257 melanoma) [µM] | TGI (NCI-H522 lung) [µM] | TGI (NCI-H23 lung) [µM] | GI50 (UO-31 renal) [µM] | GI50 (OVCAR-3 ovarian) [µM] | GI50 (HS 578T breast) [µM] | TGI (HS 578T breast) [µM] | GI50 (HCT-116 colon) [µM] | GI50 (HOP-62 NSCLC) [µM] | GI50 (K-562 leukemia) [µM] | GI50 (UACC-257 melanoma) [µM] | GI50 (NCI-H522 lung) [µM] | GI50 (NCI-H23 lung) [µM] | GI50 (SNB-75 CNS) [µM] |
| --- | --- | --- | --- | --- | --- | --- | --- | --- | --- | --- | --- | --- | --- | --- | --- | --- | --- | --- | --- | --- |
| COc1cc2ccnc3c2c(c1OC)CC1CC(O)C(OC)CC31 (stereo unspecified) | > 100 | > 100 | > 100 | > 100 | > 100 | > 100 | > 100 | > 100 | > 100 |  |  |  |  |  |  |  |  |  |  |  |
| O=C1NC(=O)C(=O)C(c2nc3ccccc3s2)C1=O | > 100 | > 100 | > 100 | > 100 | > 100 |  | > 100 | > 100 | > 100 |  |  |  |  |  |  |  |  |  |  |  |
| O=C(Nc1ccc(Cl)cc1)c1cc2cc(F)ccc2cc1O |  | > 100 | > 100 | 6.66 | 7.56 | > 100 | 5.2 | 3.03 | 7.33 | 1.08 | 1.09 | 3.03 | > 100 | 0.963 | 2.01 | 0.491 | 1.34 | 0.359 | 0.929 |  |
| CC1=C2C(=O)C(C)(C)C=C2C(=O)[C@](C)(O)C12CC2 | > 1 | > 1 | > 1 | > 1 | > 1 | > 1 | > 1 | 0.7 | > 1 |  |  |  |  |  |  |  |  |  |  |  |
| CCOC(=O)/C(C#N)=C\C=C1/C=CNC2=NCCN21 | > 100 | > 100 | > 100 | > 100 | > 100 | > 100 | > 100 | > 100 | > 100 |  |  |  |  |  |  |  |  |  |  |  |
| O=C(c1cc2c(C(F)(F)F)onc2c2ccccc12)C(F)(F)F | 15.4 | 9.52 | 13.8 | 1.03 | 11.3 | > 40 | 47.5 | 6.25 | 4.25 |  |  |  |  |  |  |  |  |  |  |  |
| COc1ccc(-c2csc(NC(=O)N3CCN(c4cc5c(cc4F)c(=O)c(C(=O)O)cn5C4CC4)CC3)n2)cc1 | 17.4 | > 100 | 17.9 | > 100 | 32.6 | 14.9 |  |  |  | 1.62 | 0.89 | 2.94 | > 100 | 1.72 | 3.02 | 2.71 |  |  |  | 2.47 |
| O=C1C(Cl)=C(Nc2cccc(O)c2)C(=O)N1c1cccc(Cl)c1 |  | > 100 | 64.1 | > 100 | > 100 | 79 |  | 36.3 | > 100 | 75.8 | 22.3 | 29.3 | > 100 | 21.7 | 52.7 | 29.8 |  | 16.6 | 37.7 |  |
| CCN(CC)CCOC(=O)/C(=C/c1ccc(OC)cc1)c1cc(OC)c(OC)c(OC)c1 | 11.6 | 31.9 | 64.3 | > 100 | 31.7 | 27.9 | 19.3 | 9.32 |  |  |  |  |  |  |  |  |  |  |  |  |
| CC(C)Cc1ccc(C(C)/C=C2\CCC(CN3CCCC3)C2=O)cc1 (stereo unspecified) | 30 | 29.5 | 12.7 | 15.5 | 26.1 | > 100 | 31.1 | 3.13 | 26.6 |  |  |  |  |  |  |  |  |  |  |  |
| N#CC(C(=O)CCC(=O)Nc1ccc(Cl)cc1)c1ccccc1Cl (stereo unspecified) | > 100 | > 100 | > 100 | > 100 |  | > 100 | > 100 | > 100 | > 100 |  |  |  |  |  |  |  |  |  |  |  |
| c1ccc2c(c1)nnn2CNc1ccc(N2CCOCC2)cc1 | > 100 | > 100 | > 100 | > 100 | > 100 | > 100 | > 100 | > 100 | > 100 |  |  |  |  |  |  |  |  |  |  |  |
| CCCCCCCC(=O)OCC1OC(n2cc(F)c(=O)[nH]c2=O)C(NC(=O)OCc2ccccc2)C(OC(=O)CCCCCCC)C1O (stereo unspecified) | > 100 | 0.865 | 47.7 | > 100 | > 100 | 61.8 | > 100 | 72 | > 100 |  |  |  |  |  |  |  |  |  |  |  |
| Cc1ccc(NC(=O)CC/C(CC(=O)c2ccc(Cl)cc2)=N\NC(=O)C(=O)NN)cc1C | > 100 | > 100 | > 100 | > 100 | > 100 | > 100 | > 100 | > 100 | > 100 |  |  |  |  |  |  |  |  |  |  |  |
| NNC(=O)CCC(=O)Nc1ccc(Cl)cc1Cl | > 100 | > 100 | > 100 | > 100 | > 100 | > 100 | > 100 | > 100 | > 100 |  |  |  |  |  |  |  |  |  |  |  |
| CC(=O)O[C@H]1CCC2[C@@H]3CCC4Nc5c(cnn5-c5ccccc5)C[C@]4(C)C3CC[C@@]21C (stereo partly specified) | 20.2 | 22.9 | 46.2 | 27.5 | 95.7 | 74.3 | 23.7 | 29.7 | 21.2 |  |  |  |  |  |  |  |  |  |  |  |
| S=P(c1ccccc1)(c1ccccc1)C1(C2(P(=S)(c3ccccc3)c3ccccc3)CC2)CC1 | > 100 | > 100 |  | > 100 | > 100 | > 100 |  | > 100 | > 100 |  |  |  |  |  |  |  |  |  |  |  |
| COC1CC2C=CC3C4OC2(/C(C)=C/C(C)C(C(C)O)OC1=O)C3C(O)C(C)C4OC(=O)c1ccc[nH]1 (stereo unspecified) |  | > 100 | > 100 | > 100 | > 100 |  | > 100 | > 100 | > 100 |  |  |  | > 100 |  |  |  |  |  |  |  |
| O=C(COc1ccc(Cl)cc1)N1N=C(c2ccc([N+](=O)[O-])o2)CC1(O)c1ccccc1 (stereo unspecified) |  | 23.6 | 17.2 | 17.9 | 35.8 | 29.7 | 15.6 | 38.6 | 6.73 |  |  |  |  |  |  |  |  |  |  |  |
| CN(C)Cc1cccc(CN(C)C)[c]1[Sn]([Br])([c]1ccccc1)[c]1ccccc1 | 66.2 | 26.8 | 24.3 | 17.3 | 39.5 |  | 53.7 |  | 46.3 | 13.1 | 11.3 | 19.8 | 47 | 4.31 | 17.2 |  | 16 |  | 13.5 | 21.7 |
